Assay results: BindingDB's records for aid1799747 (Csar, 2012)
pKd, pKi: −log10 of the molar value.

These compounds were tested against T1, UDP-3-O-acyl-N-acetylglucosamine deacetylase (Aquifex aeolicus (strain VF5), UniProt O67648) (assay: OctetRed). Details: pH 7; 25 °C.
T1 sequence (O67648 whole entry): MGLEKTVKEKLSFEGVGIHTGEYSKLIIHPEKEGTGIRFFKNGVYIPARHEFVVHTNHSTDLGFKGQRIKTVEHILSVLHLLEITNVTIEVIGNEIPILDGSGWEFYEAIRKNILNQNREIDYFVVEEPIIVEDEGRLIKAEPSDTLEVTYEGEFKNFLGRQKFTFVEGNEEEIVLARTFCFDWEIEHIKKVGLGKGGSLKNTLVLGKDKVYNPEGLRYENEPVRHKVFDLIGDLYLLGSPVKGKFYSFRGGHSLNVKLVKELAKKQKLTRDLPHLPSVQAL

SMILES | pKd | pKi
NC[C@H](NC(=O)c1ccc(-c2ccccc2)cc1)C(=O)NO [CS249] | 6.84 | 
NC[C@H](NC(=O)c1ccc(-c2ccc(Br)cc2)cc1)C(=O)NO [CS250] | 7.54 | 
NC[C@H](NC(=O)c1ccc(C#CC#Cc2ccccc2)cc1)C(=O)NO [CS252] |  | 8.00
C[C@@H](O)[C@H](NC(=O)c1ccc(C#CC#Cc2ccccc2)cc1)C(=O)NO [CS257] |  | 9.00
C[C@@H](O)[C@H](NC(=O)c1ccc(-c2ccc(Br)cc2)cc1)C(=O)NO [CS258] |  | 9.00
C[C@@H](O)[C@H](NC(=O)c1ccc(C#Cc2ccccc2)cc1)C(=O)NO [CS259] |  | 9.00
C[C@@H](O)[C@H](NC(=O)c1ccc(-c2ccccc2)cc1)C(=O)NO [CS263] | 7.85 | 
O=C(NO)[C@H]1COC(c2ccc(OC(F)(F)F)c(Cl)c2)=N1 [CS270] | 6.13 | 
O=C(NO)[C@H]1COC(c2ccc(F)c(C(F)(F)F)c2)=N1 [CS271] | 6.35 | 
O=C(NO)[C@H]1COC(c2cc3cc(F)ccc3[nH]2)=N1 [CS272] | 6.11 | 
CCCc1ccc(-c2ccc(C3=N[C@@H](C(=O)NO)CO3)cc2)cc1 [CS274] | 6.38 | 
O=C(NO)c1csc(-c2ccc(OC(F)(F)F)c(Cl)c2)n1 [CS275] | 5.74 | 
